Source: patent US20140206682A1, “COMPOUNDS AND COMPOSITIONS AS PDGFR KINASE INHIBITORS” (NOVARTIS PHARMACEUTICALS UK LIMITED, priority 2011, published 2014)

System: PDGFR
Test: Rat A10 cell proliferation assay
Type: cell-based
Details: Rat A10 cells, recombinant rat PDGF-BB, CellTiter-Glo after 68 hours
Description: Compounds of Formula (I) provided herein were assayed to measure their capacity to inhibit c-kit and PDGFR kinases using the appropriate assay described below: c-Kit inhibition was evaluated using the Mo7e cell proliferation assay, and PDGFR inhibition was evaluated using the Rat A10 cell proliferation assay and the Human TG/HA-VSMC cell proliferation assay.
Rat A10 cells (ATCC) were resuspended in DMEM supplemented with 1% FBS and 10 ng/mL recombinant rat PDGF-BB at 20,000 cells/mL. The cells were aliquoted into 384 well plates at 50 μL/well and incubated for 4 hours at 37° C. 0.5 μL of test compound 3-fold serially diluted in DMSO was added to each well. The plates were returned to the incubator for a further 68 hours. 25 μL of CellTiter-Glo (Promega) was added to each well and the plates were incubated on the bench for 15 minutes. Luminescence was then read using a CLIPR CCD camera (Molecular Devices).

`[2H]c1c([2H])c([2H])n2c(C(=O)Nc3cc(C(=O)N[C@@H]4c5ccccc5C[C@@H]4O)ccc3F)cnc2c1[2H]` [F83, N-(2-fluoro-5-{[(1R,2S)-2-hydroxy-2,3-dihydro-1H-inden-1-yl]carbamoyl}phenyl)-5,6,7,8-tetrahydrogenioimidazo[1,2-a]pyridine-3-carboxamide] showed an IC50 (Table 2) of 0.289 µM.

Compound `Cc1ccc(C(=O)N[C@@H]2c3ccccc3C[C@H]2O)cc1NC(=O)c1cnc2ccccn12` [F22, N-(5-{[(1R,2R)-2-hydroxy-2,3-dihydro-1H-inden-1-yl]carbamoyl}-2-methylphenyl)imidazo[1,2-a]pyridine-3-carboxamide] has an IC50 (Table 1) of 0.028 µM.

With `O=C(N[C@@H]1CCCC[C@H]1CO)c1ccc(F)c(NC(=O)c2cnc3ccccn23)c1` [F24, N-(2-fluoro-5-{[(1R,2R)-2-(hydroxymethyl)cyclohexyl]carbamoyl}phenyl)imidazo[1,2-a]pyridine-3-carboxamide] the IC50 (Table 1) was 0.094 µM.

`O=C(N[C@@H]1c2cc(Cl)ccc2C[C@@H]1O)c1ccc(F)c(NC(=O)c2cnc3ccc(F)cn23)c1` (stereo in doubt) [F42, N-(5-{[(1R,2S)-6-chloro-2-hydroxy-2,3-dihydro-1H-inden-1-yl]carbamoyl}-2-fluorophenyl)-6-fluoroimidazo[1,2-a]pyridine-3-carboxamide] showed an IC50 (Table 2) of 0.277 µM.

In the case of `O=C(N[C@@H]1CCC[C@H]1O)c1ccc(F)c(NC(=O)c2cnc3ccccn23)c1` [F75, N-(2-fluoro-5-{[(1R,2R)-2-hydroxycyclopentyl]carbamoyl}phenyl)imidazo[1,2-a]pyridine-3-carboxamide], the IC50 (Table 2) is reported as 3.84 µM.

In the case of `O=C(N[C@@H]1c2ccccc2C[C@@H]1O)c1ccc(F)c(NC(=O)c2cnc3ccc(COCC(F)(F)F)cn23)c1` (stereo in doubt) [F61, N-(2-fluoro-5-{[(1R,2S)-2-hydroxy-2,3-dihydro-1H-inden-1-yl]carbamoyl}phenyl)-6-[(2,2,2-trifluoroethoxy)methyl]imidazo[1,2-a]pyridine-3-carboxamide], the IC50 (Table 2) is reported as 0.618 µM.

In the case of `CN(C)CCCOc1ccc(-c2ccn3c(C(=O)Nc4cc(C(=O)NC5Cc6ccccc6C5O)ccc4F)cnc3c2)cn1` (stereo not drawn) [F13, 7-{6-[3-(dimethylamino)propoxy]pyridin-3-yl}-N-{2-fluoro-5-[(1-hydroxy-2,3-dihydro-1H-inden-2-yl)carbamoyl]phenyl}imidazo[1,2-a]pyridine-3-carboxamide], the IC50 (Table 1) is reported as 0.056 µM.

Work on `Cc1ccc2ncc(C(=O)Nc3cc(C(=O)N[C@@H]4c5ccccc5C[C@@H]4O)c(Cl)cc3F)n2c1` [F85, N-(4-chloro-2-fluoro-5-{[(1R,2S)-2-hydroxy-2,3-dihydro-1H-inden-1-yl]carbamoyl}phenyl)-6-methylimidazo[1,2-a]pyridine-3-carboxamide] yielded an IC50 (Table 2) of 4.02 µM.

For `O=C(N[C@@H]1c2ccccc2C[C@@H]1O)c1ccc(F)c(NC(=O)c2cnc3cc(F)ccn23)c1` [F18, 7-fluoro-N-(2-fluoro-5-{[(1R,2S)-2-hydroxy-2,3-dihydro-1H-inden-1-yl]carbamoyl}phenyl)imidazo[1,2-a]pyridine-3-carboxamide], the IC50 (Table 1) was 0.086 µM.

With `O=C(N[C@@H]1CCCCC[C@H]1O)c1ccc(F)c(NC(=O)c2cnc3ccccn23)c1` [F12, N-(2-fluoro-5-{[(1R,2R)-2-hydroxycycloheptyl]carbamoyl}phenyl)imidazo[1,2-a]pyridine-3-carboxamide] the IC50 (Table 1) was 0.079 µM.

Work on `O=C(N[C@H]1CCCCC1O)c1cccc(NC(=O)c2cnc3ccccn23)c1` (stereo in doubt) [F67, N-(3-{[(1S,2S)-2-hydroxycyclohexyl]carbamoyl}phenyl)imidazo[1,2-a]pyridine-3-carboxamide] yielded an IC50 (Table 2) of 1.36 µM.

Work on `Cc1ccn2c(C(=O)Nc3cc(C(=O)N[C@H]([C@@H](O)c4ccccc4)C(C)(C)O)ccc3F)cnc2c1` [F108, N-(5-{[(1S,2R)-1,3-dihydroxy-3-methyl-1-phenylbutan-2-yl]carbamoyl}-2-fluorophenyl)-7-methylimidazo[1,2-a]pyridine-3-carboxamide] yielded an IC50 (Table 2) of 0.255 µM.

`Cc1ccc2ncc(C(=O)Nc3cc(C(=O)N[C@@H]4c5ccc(Cl)cc5C[C@@H]4O)ccc3F)n2c1` (stereo in doubt) [F41, N-(5-{[(1R,2S)-5-chloro-2-hydroxy-2,3-dihydro-1H-inden-1-yl]carbamoyl}-2-fluorophenyl)-6-methylimidazo[1,2-a]pyridine-3-carboxamide] gave an IC50 (Table 2) of 0.272 µM.

`O=C(N[C@@H]1Cc2ccccc2[C@@H]1O)c1ccc(F)c(NC(=O)c2cnc3ccccn23)c1` [F38, N-(2-fluoro-5-{[(1S,2R)-1-hydroxy-2,3-dihydro-1H-inden-2-yl]carbamoyl}phenyl)imidazo[1,2-a]pyridine-3-carboxamide] showed an IC50 (Table 2) of 0.248 µM.

`Cc1ccc2ncc(C(=O)Nc3cc(C(=O)N[C@@H]4c5ccc(Cl)cc5C[C@@H]4O)ccc3F)n2c1` [F84, N-(5-{[(1R,2S)-5-chloro-2-hydroxy-2,3-dihydro-1H-inden-1-yl]carbamoyl}-2-fluorophenyl)-6-methylimidazo[1,2-a]pyridine-3-carboxamide] gave an IC50 (Table 2) of 0.584 µM.

`Cn1nccc1-c1ccn2c(C(=O)Nc3cc(C(=O)N[C@H]4Cc5ccccc5[C@H]4O)ccc3F)cnc2c1` [F16, N-(2-fluoro-5-{[(1R,2S)-1-hydroxy-2,3-dihydro-1H-inden-2-yl]carbamoyl}phenyl)-7-(1-methyl-1H-pyrazol-5-yl)imidazo[1,2-a]pyridine-3-carboxamide] gave an IC50 (Table 1) of 0.057 µM.

Compound `O=C(N[C@@H]1c2ccccc2C[C@@H]1O)c1ccc(F)c(NC(=O)c2cnc3ccc(N4CCOCC4)cn23)c1` (stereo in doubt) [F54, N-(2-fluoro-5-{[(1R,2S)-2-hydroxy-2,3-dihydro-1H-inden-1-yl]carbamoyl}phenyl)-6-(morpholin-4-yl)imidazo[1,2-a]pyridine-3-carboxamide] has an IC50 (Table 2) of 0.477 µM.

For `Cc1ccn2c(C(=O)Nc3cc(C(=O)N[C@@H]4c5ccccc5C[C@@H]4O)ccc3F)cnc2c1` [F26, N-(2-fluoro-5-{[(1R,2S)-2-hydroxy-2,3-dihydro-1H-inden-1-yl]carbamoyl}phenyl)-7-methylimidazo[1,2-a]pyridine-3-carboxamide], the IC50 (Table 1) was 0.049 µM.

`O=C(NC(CO)c1ccccc1)c1cccc(NC(=O)c2cnc3ccccn23)c1` (stereo not drawn) [F65, N-{3-[(2-hydroxy-1-phenylethyl)carbamoyl]phenyl}imidazo[1,2-a]pyridine-3-carboxamide] was tested, and the IC50 (Table 2) was 1.11 µM.

Work on `O=C(NC[C@@H](O)c1ccccc1F)c1ccc(F)c(NC(=O)c2cnc3ccccn23)c1` [F122, N-(2-fluoro-5-{[(2S)-2-(2-fluorophenyl)-2-hydroxyethyl]carbamoyl}phenyl)imidazo[1,2-a]pyridine-3-carboxamide] yielded an IC50 (Table 1) of 0.06 µM.

`CC(C)(O)[C@H]1CCCC[C@@H]1NC(=O)c1ccc(F)c(NC(=O)c2cnc3ccccn23)c1` [F102, N-(2-fluoro-5-{[(1S,2S)-2-(2-hydroxypropan-2-yl)cyclohexyl]carbamoyl}phenyl)imidazo[1,2-a]pyridine-3-carboxamide] gave an IC50 (Table 2) of 0.425 µM.

In the case of `O=C(N[C@@H](CO)c1ccccc1)c1ccc(F)c(NC(=O)c2cnc3ccccn23)c1` [F86, N-(2-fluoro-5-{[(1R)-2-hydroxy-1-phenylethyl]carbamoyl}phenyl)imidazo[1,2-a]pyridine-3-carboxamide], the IC50 (Table 2) is reported as 1.51 µM.

In the case of `O=C(NCC1(CO)CCCC1)c1ccc(F)c(NC(=O)c2cnc3ccccn23)c1` [F90, N-(2-fluoro-5-({[1-(hydroxymethyl)cyclopentyl]methyl}carbamoyl)phenyl]imidazo[1,2-a]pyridine-3-carboxamide], the IC50 (Table 2) is reported as 1.76 µM.

Compound `CC(C)[C@H](CO)NC(=O)c1cccc(NC(=O)c2cnc3ccccn23)c1` [F80, N-(3-{[(2R)-1-hydroxy-3-methylbutan-2-yl]carbamoyl}phenyl)imidazo[1,2-a]pyridine-3-carboxamide] has an IC50 (Table 2) greater than 10 µM.

In the case of `CC(C)(CO)NC(=O)c1ccc(F)c(NC(=O)c2cnc3ccccn23)c1` [F98, N-{2-fluoro-5-[(1-hydroxy-2-methylpropan-2-yl)carbamoyl]phenyl}imidazo[1,2-a]pyridine-3-carboxamide], the IC50 (Table 2) is reported as greater than 10 µM.

`O=C(N[C@@H]1c2cc(F)ccc2C[C@@H]1O)c1ccc(F)c(NC(=O)c2cnc3ccc(F)cn23)c1` [F113, 6-fluoro-N-(2-fluoro-5-{[(1R,2S)-6-fluoro-2-hydroxy-2,3-dihydro-1H-inden-1-yl]carbamoyl}phenyl)imidazo[1,2-a]pyridine-3-carboxamide] was tested, and the IC50 (Table 1) was 0.113 µM.

`O=C(N[C@H]1CC[C@H](O)CC1)c1ccc(F)c(NC(=O)c2cnc3ccccn23)c1` [F93, N-{2-fluoro-5-[(4-hydroxycyclohexyl)carbamoyl]phenyl}imidazo[1,2-a]pyridine-3-carboxamide] was tested, and the IC50 (Table 2) was 1.14 µM.

With `O=C(N[C@@H]1c2ccccc2C[C@@H]1O)c1ccc(F)c(NC(=O)c2cnc3ccc(F)cn23)c1` [F27, 6-fluoro-N-(2-fluoro-5-{[(1R,2S)-2-hydroxy-2,3-dihydro-1H-inden-1-yl]carbamoyl}phenyl)imidazo[1,2-a]pyridine-3-carboxamide] the IC50 (Table 1) was 0.168 µM.

`O=C(N[C@@H]1c2ccccc2OC[C@@H]1O)c1ccc(F)c(NC(=O)c2cnc3ccccn23)c1` (racemic) [F34, N-(2-fluoro-5-{[(3R,4R)-3-hydroxy-3,4-dihydro-2H-1-benzopyran-4-yl]carbamoyl}phenyl)imidazo[1,2-a]pyridine-3-carboxamide] showed an IC50 (Table 1) of 0.195 µM.

Compound `CN(C)CCCOc1ccc(-c2ccn3c(C(=O)Nc4cc(C(=O)N[C@H]5Cc6ccccc6[C@H]5O)ccc4F)cnc3c2)cn1` (stereo in doubt) [F32, 7-{6-[3-(dimethylamino)propoxy]pyridin-3-yl}-N-(2-fluoro-5-{[(1R,2S)-1-hydroxy-2,3-dihydro-1H-inden-2-yl]carbamoyl}phenyl)imidazo[1,2-a]pyridine-3-carboxamide] has an IC50 (Table 1) of 0.044 µM.
